Read-outs that look alike come from different tables or passages of the source. Non-standard residues stand in square brackets, D forms with d. No end group written: not given here. *: point of attachment. Pmc = Cc1c(C)c(S(=O)(=O)*)c(C)c2c1OC(C)(C)CC2; Pen = CC(C)(S)[C@H](N)C(=O)O
What was measured:
αvβ5 [1] = test: αvβ5 ELISA IC50 (μM)
Excerpt: Table printed on a drawing sheet, FIG. 17
Title: Modifications of G(Pen)[…]
(§1) Head of the field: αvβ5 ELISA IC50 (μM)
The patent's description of the figure: FIG. 17 is a Table showing the effect of modifications of Pen residue at position −3 (as defined, infra) on potency and selectivity.
First copying reader's note: Underlining in the printed sequences marks the cyclized part; the footnotes a and b are referenced but not printed on the sheet.
(§2) Where the first naming reader finds the target: head: αvβ5 ELISA IC50 (μM)

platelets [2] = molecular target: T1, platelets (Homo sapiens, UniProt P05106+P08514); test: Thrombin-stimulated platelet aggregation (gel-filtered platelets); format: cell-based; details: thrombin 2 U/ml
T1 sequence (P08514 32-1039): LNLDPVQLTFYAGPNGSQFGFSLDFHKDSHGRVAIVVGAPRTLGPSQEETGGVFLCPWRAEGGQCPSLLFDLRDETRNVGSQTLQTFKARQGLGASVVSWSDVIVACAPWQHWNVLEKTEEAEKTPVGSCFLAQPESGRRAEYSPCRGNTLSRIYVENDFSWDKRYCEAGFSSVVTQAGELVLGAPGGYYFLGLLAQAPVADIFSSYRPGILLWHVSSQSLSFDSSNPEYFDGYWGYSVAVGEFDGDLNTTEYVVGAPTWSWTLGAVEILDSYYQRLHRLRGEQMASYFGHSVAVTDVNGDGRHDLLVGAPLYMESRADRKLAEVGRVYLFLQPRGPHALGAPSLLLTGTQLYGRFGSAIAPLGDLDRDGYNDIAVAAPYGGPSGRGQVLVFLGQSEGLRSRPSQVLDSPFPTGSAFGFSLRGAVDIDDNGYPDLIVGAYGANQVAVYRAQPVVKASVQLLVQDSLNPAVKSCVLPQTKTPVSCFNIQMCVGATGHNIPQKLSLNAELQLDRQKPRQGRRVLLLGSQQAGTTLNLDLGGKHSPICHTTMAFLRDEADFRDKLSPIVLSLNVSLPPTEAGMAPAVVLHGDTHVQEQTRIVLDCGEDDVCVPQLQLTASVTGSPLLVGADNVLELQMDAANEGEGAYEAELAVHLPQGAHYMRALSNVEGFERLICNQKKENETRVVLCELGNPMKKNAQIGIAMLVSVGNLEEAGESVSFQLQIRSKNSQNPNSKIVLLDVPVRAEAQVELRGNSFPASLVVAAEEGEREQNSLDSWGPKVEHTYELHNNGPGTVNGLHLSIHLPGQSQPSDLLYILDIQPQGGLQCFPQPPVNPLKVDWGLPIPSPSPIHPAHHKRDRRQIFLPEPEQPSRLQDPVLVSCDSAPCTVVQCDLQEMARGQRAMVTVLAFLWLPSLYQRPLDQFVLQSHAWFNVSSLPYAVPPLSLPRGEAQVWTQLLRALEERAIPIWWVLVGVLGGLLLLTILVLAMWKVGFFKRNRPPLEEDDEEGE
T1 sequence (P05106 27-788): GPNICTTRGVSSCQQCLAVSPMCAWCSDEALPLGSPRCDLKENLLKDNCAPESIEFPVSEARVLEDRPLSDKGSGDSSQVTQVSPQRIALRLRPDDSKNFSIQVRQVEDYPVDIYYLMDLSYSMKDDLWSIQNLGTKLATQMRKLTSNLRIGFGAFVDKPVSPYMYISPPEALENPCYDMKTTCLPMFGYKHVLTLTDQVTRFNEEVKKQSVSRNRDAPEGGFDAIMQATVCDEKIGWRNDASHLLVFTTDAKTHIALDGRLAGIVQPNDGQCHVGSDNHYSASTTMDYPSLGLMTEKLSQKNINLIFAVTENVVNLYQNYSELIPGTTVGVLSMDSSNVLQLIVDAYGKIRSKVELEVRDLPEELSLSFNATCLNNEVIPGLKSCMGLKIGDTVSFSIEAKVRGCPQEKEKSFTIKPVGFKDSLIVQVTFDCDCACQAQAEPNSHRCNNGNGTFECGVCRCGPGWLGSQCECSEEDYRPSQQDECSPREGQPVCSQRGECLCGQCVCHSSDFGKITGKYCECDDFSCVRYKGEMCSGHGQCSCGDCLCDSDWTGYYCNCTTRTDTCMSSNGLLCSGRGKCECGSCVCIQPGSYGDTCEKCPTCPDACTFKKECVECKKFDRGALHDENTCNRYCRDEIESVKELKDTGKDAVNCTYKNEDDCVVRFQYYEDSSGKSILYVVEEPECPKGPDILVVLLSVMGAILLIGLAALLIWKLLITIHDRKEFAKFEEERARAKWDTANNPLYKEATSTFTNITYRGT
Experimental: (§6) All aggregation studies were performed at 37° C. with a constantly stirred suspension of 3×10^8 platelets/ml. (Platelet count was determined with the aid of a hemacytometer.) Peptides and stimulants were added to these suspensions in 1% dilutions. The PRP and gel-filtered platelets were used within three hours from the time of blood collection.
(§7) Peptide anti-aggregation potencies were determined from dose-responsive curves for the inhibition of the maximum aggregation responses stimulated by physiologic doses of ADP (10 μm) and thrombin (2 U/ml).

platelets [3] = molecular target: T1, platelets; format: cell-based; details: ADP 10 μm; citrated PRP; read-out: ADP-Stimulated Aggregation (IC50)
Experimental: Briefly, the change in light transmission was measured through a stirred suspension of platelets in an aggregometer (Model 400 VS, Chrono-Log, Havertown, Pa., USA). […] In studies using thrombin, the PRP was gel-filtered on Sepharose 2B in divalent ion-free Tyrode's solution containing 2% BSA. For all studies, the reference standard was platelet-poor plasma, which was obtained by centrifuging PRP at 1000×g for 5 min.
as §6, §7

platelets [4] = molecular target: T1, platelets; test: Platelet aggregation assay (Examples XI.G and XII); format: cell-based; details: for fold increase in platelet aggregation potency on substitution of Leu in analogue 5: comparator analogue 5; for fold increase in potency over analogue 1: comparator analogue 1; for reactivity in platelet aggregation relative to 8×: comparator 8×
Experimental: (§3) Platelet aggregation was assessed using the method of Born, Nature 194:927-929 (1962), incorporated herein by reference. Briefly, the change in light transmission was measured through a stirred suspension of platelets in an aggregometer (Model 400 VS, Chrono-Log, Havertown, Pa., USA). Studies employing ADP were performed with platelet-rich plasma (PRP), which was obtained by low-speed centrifugation (200×g for 10 min.) of whole blood freshly drawn into trisodium citrate (at a final concentration of 11 mM). In studies using thrombin, the PRP was gel-filtered on Sepharose 2B in divalent ion-free Tyrode's solution containing 2% BSA. For all studies, the reference standard was platelet-poor plasma, which was obtained by centrifuging PRP at 1000×g for 5 min.
All aggregation studies were performed at 37° C. with a constantly stirred suspension of 3×10^8 platelets/mL. (Platelet count was determined with the aid of a hemacytometer.) Peptides and stimulants were added to these suspensions in 1% dilutions. The PRP and gel-filtered platelets were used within three hours from the time of blood collection.
The peptides described in this Example were synthesized according to the methods of Examples I and XI. Selectivity and potency were measured according to the methods of Examples II through XI. The peptide identification numbers used in this Example are consistent and relevant to this Example only. Some of the peptides are identified by other nomenclature elsewhere in this document.

αvβ5 [5] = test: αvβ5 ELISA IC50 (μM); remark: listed apart in the source
Excerpt: Table printed on a drawing sheet, FIG. 19
Title: Modifications of R(Pmc)GHRGD(Y-OMe)RCR
as §1
First copying reader's note: The part of each sequence from (Pmc) through C is underlined on the sheet, and the footnotes a,b cited in the head are not printed on it.
as §2

αvβ5 [6] = test: αvβ5 ELISA IC50 (μM); remark: listed apart in the source
Excerpt: Table printed on a drawing sheet, FIG. 23
Title: Modification of Ac-CNPRGD(Y-OMe)RC-NH2
as §1
First copying reader's note: Underlining in the printed sequences marks the cyclised part (C to C); the footnote for the raised a on 'Peptide' is not printed on the sheet.
as §2

αvβ5 [7] = test: αvβ5 ELISA IC50 (μM); remark: listed apart in the source
Excerpt: Table printed on a drawing sheet, FIG. 22
Title: Modifications of Ac-CNPRGD(Y-OMe)RC-NH2
as §1
First copying reader's note: Underlining in the printed sequences marks the cyclic part; the footnote for the raised a at 'Peptide' is not printed on the sheet, and the D in D-Pen is printed as a small capital.
as §2

platelets [8] = test: Ex vivo inhibition of platelet aggregation (Table IV); format: in vivo, dog; details: dose as listed per peptide (bolus ± infusion)
Experimental: as §3, with “Platelet aggregation assays were performed following the methods of this Example or those of Example IX.G. Platelet” for “Platelet”, “(Nature” for “Nature”, “(1962)),” for “(1962),”
(§4) Platelet counts and ex vivo aggregation studies were performed one hour before and 1, 3, and 5 hours after application of anodal direct current.
Using the method described in Example V to measure ex vivo inhibition of platelet aggregation and the method described in Example VII to measure bleeding, four additional peptides were tested. These peptides included 11J, 11Q, 11K and 11V.

coronary thrombosis = test: Electrically induced canine coronary thrombosis (time to full occlusion); format: in vivo, dog
Experimental: Male mongrel dogs weighing 14 to 20 kg were selected based on proper aggregation of their platelets in response to arachidonic acid, collagen, and adenosine disphosphate (ADP) and based on similar weights and hemodynamic properties.
Before surgery, the animals were anesthetized with sodium pentobarbital (30 mg/kg, i.v.) and then intubated and ventilated on room air with positive pressure using a respirator (Harvard Apparatus, S. Natick, Mass.) at a volume of 30 ml/kg and a frequency of 12 breaths/min. Surgery, performed under aseptic conditions, was begun with the placement of cannulae into the left carotid artery and jugular vein for monitoring arterial blood pressure (Statham P23 pressure transducer, Gould, Inc., Cardiovascular Products, Oxnard, Calif.) and administering intravenous fluids.
The heart was exposed via a left thoracotomy through the 5th intercostal space. A 2-cm segment of the left circumflex coronary artery (LCCA) was isolated from surrounding tissue by blunt dissection. […] The intra-coronary electrode was constructed by attaching a 25-gauge hypodermic needle tip to a 30-gauge Teflon-insulated silver-coated copper wire. The mechanical occluder was constructed of stainless steel in a C shape with a Teflon screw (2 mm diameter) on top. It was adjusted to control vessel circumference and decrease the reactive hyperemic flow due to a 10-sec (full) occlusion by 50-70% without affecting basal coronary blood flow (FIG. 1). A monopolar epicardial electrode was sutured to the surface of the ventricle in the region of LCCA distribution to monitor ischemic changes in the electrocardiogram (ECG). The left atrium was cannulated with polythylene tubing for administration of the peptide. Continuous recordings of blood pressure, limb lead II ECG, epicardial electrogram, and mean and phasic LCCA blood flow were obtained on a Model 7 polygraph (Grass Instrument Co., Quincy, Mass.).
One hour after the completion of surgery, a 100 micro-amp continuous anodal direct current delivered from a 9 volt nickel-cadmium battery was applied to the intimal surface of the LCCA. The anode of the battery was in series with a 250,000 ohm potentiometer and the intraluminal coronary artery electrode. The electric circuit was completed by placing the cathode in a subcutaneous site. Electrical stimulation was applied for three hours. At the conclusion of each experiment, the heart was fibrillated electrically and quickly removed, and the LCCA was dissected free as far as possible to verify the position of the implanted anodal electrode.
(§5) Animals were randomly assigned to two treatment groups: vehicle control (i.e., normal saline) or RGD peptides at various concentrations. Peptides were administered intra-atrially in both bolus and continuous injections. Each bolus injection consisted of 0.5 to 10 mg/kg and was administered 15 minutes before application of the current. A continuous infusion of the same peptide was then started immediately after completion of this initial injection. Animals received a 25 μg/kg/min to 200 μg/kg/min infusion. The anti-thrombotic effects of the peptides were monitored until 30 minutes after the occurrence of a persistent, occlusive thrombus or five hours after the initiation of electrical stimulation (whichever resulted first). If an occlusive thrombus had not developed within four hours after the initiation of current, the peptide infusion was stopped.
Coronary thrombosis was quantified as the time to full occlusion. The effects of the various peptide treatments on coronary thrombosis is illustrated in FIG. 4.

platelets [9] = test: Ex vivo platelet aggregation in the canine coronary thrombosis study; design: species or system dog; details: 10 mg/kg injection
Experimental: For all ex vivo studies (see FIG. 3), control aggregation values were standardized to the percentages of light transmission observed in PRP and PPP samples (0% and 100%, respectively).
as §5, §4
Platelet aggregation was also determined ex vivo at one, three, and five hours after current application. For these studies, arachidonic acid, or collagen was again used to stimulate the platelets.

R(D-Pen)GHRGDLRCR [analogue 4]
IC50 (αvβ5 [1]): 10 µM

R(Pmc)GHRGDLRCR [analogue 5]
IC50 (αvβ5 [1]): 1.58 µM

R2(Pen)GRGDTPCA
IC50 (platelets [2]): 2.7 µM | IC50 (platelets [3]): 8.2 µM

R(Tmc)GHRGDLRCR [analogue 7] [listing 1 of 2 here]
IC50 (αvβ5 [1]): 0.34 µM

R(Pmc)GHRGDVRCR
IC50 (platelets [3]): 0.69 µM | fold increase in platelet aggregation potency on substitution of Leu in analogue 5 (platelets [4]): 4 fold

G(Pen)GHRGDLRCA [2G]
IC50 (αvβ5 [1]): 8.26 µM

R(Tmc)GHRGDLRCR [analogue 7] [listing 2 of 2 here]
fold more potent than analogue 3 in the aggregation assay (platelets [4]; comparator analogue 3): 2 fold

R(Pmc)IHRGD(Y-OMe)RCR [compound 20]
IC50 (αvβ5 [5]): 9.9 µM

Ac-CNPRGD(Y-OMe)(Cit)C-NH2 [11S]
IC50 (αvβ5 [6]): 3.46 µM

(Mpr)NPRGD(Y-OMe)RC-NH2 [compound 39]
IC50 (αvβ5 [7]): 3 µM

R(Pen)GRGDTPCA
IC50 (platelets [3]): 7 µM

G(Pen)LRGDSRCA
IC50 (platelets [2]): 49 µM | IC50 (platelets [3]): 41 µM

(Pmp)NPRGD(Y-OMe)RC-NH2 [compound 38]
IC50 (αvβ5 [7]): 4.9 µM

Ac-(D-Pen)NPRGD(Y-OMe)RC-NH2 [compound 36]
IC50 (αvβ5 [7]): 6.7 µM

R(Pen)GRGDTPCR
IC50 (platelets [2]): 2 µM

R(Pmc)DHRGD(Y-OMe)RCR [compound 18]
IC50 (αvβ5 [5]): 7.2 µM

G(Pen)LRGDTPCA
IC50 (platelets [3]): 86 µM

R(Pmc)GHRGDYRCR
IC50 (platelets [3]): 1 µM

Ac-CNPRGD(Y-OMe)OC-NH2 [11P]
IC50 (αvβ5 [6]): 7.7 µM

Ac-CNPRGD(Y-OMe)AC-NH2 [11K]
IC50 (αvβ5 [6]): 8.85 µM

Ac-CNPRGD(Y-OMe)LC-NH2 [compound 47]
IC50 (αvβ5 [6]): 7.14 µM

Ac-CNPRGD(Y-OMe)EC-NH2 [11J]
IC50 (αvβ5 [6]): 9.47 µM

Ac-CNPRGD(Y-OMe)(Nle)C-NH2 [11V]
ex vivo inhibition platelet aggregation (platelets [8]): >98%

Ac-CNPRGD(Y-OMe)KC-NH2 [11R] [listing 1 of 2 here]
retained inhibitory activity versus analogue 32 (platelets [4]; comparator analogue 32): 20%

R(Pmc)GHRGDFRCR
IC50 (platelets [3]): 0.62 µM | fold increase in platelet aggregation potency on substitution of Leu in analogue 5 (platelets [4]): ~5 fold

G(Pen)GHRGDTRCA
IC50 (platelets [2]): 17 µM | IC50 (platelets [3]): 11.3 µM

(Pmp)GHRGDLRCA
fold increase in potency over analogue 1 (platelets [4]): 2 fold

L(Pen)GHRGDLRCA
IC50 (platelets [3]): 10.5 µM

G(Pen)LRGDSPCA
IC50 (platelets [2]): 308 µM | IC50 (platelets [3]): 415 µM

R(Pen)GRGDWPCR [4R]
IC50 (platelets [2]): 0.53 µM | coronary thrombosis: time to full occlusion (coronary thrombosis; 3 mg/kg): ineffective | coronary thrombosis: time to full occlusion (coronary thrombosis; 10 mg/kg): prevented occlusion throughout the duration of the study | ex vivo platelet aggregation by ADP, AA and collagen (platelets [9]): unresponsive to all modes of stimulation at all time points

G[Pen]GRGDSFCA (cysteine pairing not given here)
IC50 (platelets [3]): 115 µM

AcCIPRGDY-OMeRCNH2 [10R]
fold increase in platelet aggregation potency versus analogue 26 (platelets [4]; comparator analogue 26): 3-4 fold

G(Pen)GRGDRPCA
IC50 (platelets [3]): 22.3 µM

G(Pen)FRGDSFCA
IC50 (platelets [3]): < 200 µM

Ac-(Pmc)NPRGD(Y-OMe)RC-NH2 [compound 37]
IC50 (αvβ5 [7]): 2.34 µM

RGD(O-Me-Y)RE-NH2 [21I]
reactivity in platelet aggregation relative to 8× (platelets [4]): about three-fold

Ac-CNPKGD(Y-OMe)RC-NH2 [11Q]
ex vivo inhibition platelet aggregation (platelets [8]): >95%

Ac-CNPRGD(Y-OMe)(dR)C-NH2 [11L]
platelet aggregation potency compared with analogue 32 (platelets [4]; comparator analogue 32): decrease in potency

(Mpr)RGD(O-Me-Y)RC-NH2 [16A]
reactivity in platelet aggregation relative to 8× (platelets [4]): about two-fold

(t-but-am-Pmp)GHRGDLR(Pen)A
IC50 (platelets [3]): 89 µM

Ac-CNPRGD(Y-OMe)KC-NH2 [11R] [listing 2 of 2 here]
IC50 (αvβ5 [6]): 5.82 µM

GNPRGD(O-Me-Y)RD-NH2 [20Q]
potency relative to 17J (platelets [4]; comparator 17J): about three times | potency relative to 18J (platelets [4]; comparator 18J): about 20 times

R(Pmc)SHRGD(Y-OMe)RCR [compound 19]
IC50 (αvβ5 [5]): 6.6 µM

Ac-CNPRGD(O-N-Butyl-Y)RC-NH2 [analogue 34]
fold increase in potency over analogue 1 (platelets [4]): about 150 fold

G(D-Pen)GHRGDLRCA [compound 2]
IC50 (αvβ5 [1]): 5.27 µM

G(Pen)GRGDTPCA
IC50 (platelets [3]): 22.3 µM

R(Pmc)RHRGD(Y-OMe)RCR [compound 22]
IC50 (αvβ5 [5]): 6.2 µM
